Data taken from patent US10450279B2 (priority 2014, dated 2019).

How the values were obtained:
Assay type in all cases: cell-based
Details in all cases: relative growth vs active compound-free control (100%), 405 nm, 7 days after inoculation
Botrytis cinerea = experiment: Activity against the grey mold Botrytis cinerea in the microtiterplate test (Botrci)
Pyricularia oryzae = test system: Pyricularia oryzae
Septoria tritici = experiment: Activity against leaf blotch on wheat caused by Septoria tritici (Septtr), microtiterplate test

Structure (SMILES)	Growth (%) at 31 ppm Botrci (Botrytis cinerea)	Growth (%) at 31 ppm Pyrior (Pyricularia oryzae)	Growth (%) at 8 ppm Septtr (Septoria tritici)
CC(O)(Cn1cncn1)c1ccc(Oc2ccc(Cl)cc2)cc1C(F)(F)F (stereo not drawn) [compound 24]	0%	0%	0%
CC(O)(Cn1cncn1)c1ccc(Oc2ccc(Cl)cc2Cl)cc1C(F)(F)F (stereo not drawn) [compound 25]	3%	2%	0%
CC(O)(Cn1cncn1)c1ccc(Oc2ccccc2C(F)(F)F)cc1C(F)(F)F (stereo not drawn) [compound 26]			1%
CC(O)(Cn1cncn1)c1ccc(Oc2ccc(C(F)(F)F)cc2)cc1C(F)(F)F (stereo not drawn) [compound 27]	18%	1%	0%
CC(O)(Cn1cncn1)c1ccc(Oc2ccc(F)cc2)cc1C(F)(F)F (stereo not drawn) [compound 28]	0%	7%	0%
CC(O)(Cn1cncn1)c1ccc(Oc2ccc(F)cc2F)cc1C(F)(F)F (stereo not drawn) [compound 29]	0%	0%	5%
CC(O)(Cn1cncn1)c1ccc(Oc2ccc(Cl)cc2)cc1Cl (stereo not drawn) [compound 31]	3%	2%	0%
CC(O)(Cn1cncn1)c1ccc(Oc2ccc(Cl)cc2Cl)cc1Cl (stereo not drawn) [compound 32]	9%	3%	12%
CC(O)(Cn1cncn1)c1ccc(Oc2ccc(F)cc2)cc1Cl (stereo not drawn) [compound 33]	0%	0%	1%
CC(O)(Cn1cncn1)c1ccc(Oc2ccc(F)cc2F)cc1Cl (stereo not drawn) [compound 34]	1%	0%	0%
CC(O)(Cn1cncn1)c1ccc(Oc2ccccc2C(F)(F)F)cc1Cl (stereo not drawn) [compound 35]	1%	1%	0%
CC(O)(Cn1cncn1)c1ccc(Oc2ccc(C(F)(F)F)cc2)cc1Cl (stereo not drawn) [compound 36]		14%	
OC(Cn1cncn1)(c1ccc(Oc2ccc(F)cc2)cc1Cl)C1CC1 (stereo not drawn) [compound 37]	1%	1%	0%
OC(Cn1cncn1)(c1ccc(Oc2ccccc2C(F)(F)F)cc1Cl)C1CC1 (stereo not drawn) [compound 38]	2%	1%	1%
OC(Cn1cncn1)(c1ccc(Oc2ccc(Cl)cc2Cl)cc1Cl)C1CC1 (stereo not drawn) [compound 39]	0%	2%	14%
OC(Cn1cncn1)(c1ccc(Oc2ccc(C(F)(F)F)cc2)cc1Cl)C1CC1 (stereo not drawn) [compound 40]	8%	1%	2%
OC(Cn1cncn1)(c1ccc(Oc2ccc(F)cc2F)cc1Cl)C1CC1 (stereo not drawn) [compound 41]	1%	0%	0%
OC(Cn1cncn1)(c1ccc(Oc2ccc(Cl)cc2)cc1Cl)C1CC1 (stereo not drawn) [compound 42]	3%	1%	0%
CC(C)(C)C(O)(Cn1cncn1)c1ccc(Oc2ccc(Cl)cc2)cc1 (stereo not drawn) [compound 43]	3%		0%
CC(C)(C)C(O)(Cn1cncn1)c1ccc(Oc2ccc(F)cc2)cc1 (stereo not drawn) [compound 44]	1%	0%	0%
CC(C)(C)C(O)(Cn1cncn1)c1ccc(Oc2ccc(F)cc2F)cc1 (stereo not drawn) [compound 45]	0%	1%	0%
CC(C)(C)C(O)(Cn1cncn1)c1ccc(Oc2ccc(Cl)cc2Cl)cc1 (stereo not drawn) [compound 46]	6%	2%	4%
CC(C)(C)C(O)(Cn1cncn1)c1ccc(Oc2ccccc2C(F)(F)F)cc1 (stereo not drawn) [compound 47]	15%	1%	0%
CC(C)(C)C(O)(Cn1cncn1)c1ccc(Oc2ccc(C(F)(F)F)cc2)cc1 (stereo not drawn) [compound 48]		1%	0%
CCC(O)(Cn1cncn1)c1ccc(Oc2ccc(Cl)cc2)cc1Cl (stereo not drawn) [compound 49]	2%	1%	3%
CCC(O)(Cn1cncn1)c1ccc(Oc2ccc(F)cc2)cc1Cl (stereo not drawn) [compound 50]	2%	9%	0%
CCC(O)(Cn1cncn1)c1ccc(Oc2ccc(F)cc2F)cc1Cl (stereo not drawn) [compound 51]	0%	0%	0%
CCC(O)(Cn1cncn1)c1ccc(Oc2ccc(Cl)cc2Cl)cc1Cl (stereo not drawn) [compound 52]	3%	1%	0%
CCC(O)(Cn1cncn1)c1ccc(Oc2ccccc2C(F)(F)F)cc1Cl (stereo not drawn) [compound 53]	3%	2%	0%
CCC(O)(Cn1cncn1)c1ccc(Oc2ccc(C(F)(F)F)cc2)cc1Cl (stereo not drawn) [compound 54]	4%	2%	0%
